Data from PubChem BioAssay AID248 (DTP/NCI, 2004).
Several values for one entry are separate records, joined by “and”; a condition that tells them apart may be missing. Identical values can stand only once. Toxic doses and inconclusive results are not listed. Rule as the data show it: active = T/C of 150% or more; inactive = T/C below 125%.

Test system: L1210 leukemia ip in BDF1 mice, survival T/C
Test: NCI In Vivo Anticancer Drug Screen. Data for tumor model L1210 Leukemia (intraperitoneal) in B6D2F1 (BDF1) mice
Details: endpoint: mean survival time, higher = longer survival
How it was run: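 Mice bearing the transplanted tumor received compound or vehicle. Survival of the treated group was divided by that of the vehicle-treated control group to give the ratio.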

[1] = dose: 100.0 mg/kg/injection, schedule: Q04DX002 (ip), vehicle: Klucel (hydroxypropylcellulose) (HPC)
[2] = dose: 200.0 mg/kg/injection, schedule: Q04DX002 (ip), vehicle: Klucel (hydroxypropylcellulose) (HPC)
[3] = dose: 400.0 mg/kg/injection, schedule: Q04DX002 (ip), vehicle: Klucel (hydroxypropylcellulose) (HPC)

Measured: T/C

CCN(CC)Cc1nc2nc(Cl)c(Cl)nc2[nH]1
inactive: dose: 25.0 mg/kg/injection, schedule: Q01DX009 (ip), vehicle: saline with Tween-80 97 % of control | dose: 50.0 mg/kg/injection, schedule: Q01DX009 (ip), vehicle: saline with Tween-80 105 % of control | dose: 100.0 mg/kg/injection, schedule: Q04DX003 (ip), vehicle: saline with Tween-80 99 % of control

O=C1C=C(c2ccccc2)C(=O)C2(c3ccccc3)C=CCC(c3ccccc3)C12 (configuration not stated)
inactive: [1] 113 % of control | [2] 113 % of control | [3] 95 % of control

CC(=O)OCC1OC(N2C(=O)/C(=C(/C)c3ccncc3)SC2=S)C(OC(C)=O)C(OC(C)=O)C1OC(C)=O (configuration not stated)
inactive: dose: 25.0 mg/kg/injection, schedule: Q01DX005 (ip), vehicle: water 94 % of control | dose: 50.0 mg/kg/injection, schedule: Q01DX005 (ip), vehicle: water 97 % of control | dose: 100.0 mg/kg/injection, schedule: Q01DX005 (ip), vehicle: water 97 % of control | dose: 200.0 mg/kg/injection, schedule: Q01DX005 (ip), vehicle: water 97 % of control | dose: 400.0 mg/kg/injection, schedule: Q01DX005 (ip), vehicle: water 89 % of control

Cc1ccccc1C=O
inactive: dose: 50.0 mg/kg/injection, schedule: Q01DX001 (ip), vehicle: saline 97 % of control | dose: 100.0 mg/kg/injection, schedule: Q01DX001 (ip), vehicle: saline 94 % of control | dose: 200.0 mg/kg/injection, schedule: Q01DX001 (ip), vehicle: saline 94 % of control | dose: 400.0 mg/kg/injection, schedule: Q01DX001 (ip), vehicle: saline 94 % of control

CSc1ccc(NC(=O)Oc2cc(C)ccc2C(C)C)cc1
inactive: dose: 50.0 mg/kg/injection, schedule: Q01DX009 (ip), vehicle: Klucel (hydroxypropylcellulose) (HPC) 94 % of control | dose: 100.0 mg/kg/injection, schedule: Q01DX009 (ip), vehicle: Klucel (hydroxypropylcellulose) (HPC) 100 % of control and 88 % of control | dose: 200.0 mg/kg/injection, schedule: Q01DX009 (ip), vehicle: Klucel (hydroxypropylcellulose) (HPC) 89 % of control | dose: 400.0 mg/kg/injection, schedule: Q01DX009 (ip), vehicle: Klucel (hydroxypropylcellulose) (HPC) 91 % of control

Cc1ccc(C(=O)N/N=C/c2ccc3ccccc3c2)cc1
inactive: [1] 95 % of control | [2] 103 % of control | [3] 95 % of control
